Experimental data: PMC12155096 (International Journal of Molecular Sciences, 2025)

Target: T1, human CYP1A2 (Homo sapiens, UniProt P05177)
T1 sequence (P05177 1-516): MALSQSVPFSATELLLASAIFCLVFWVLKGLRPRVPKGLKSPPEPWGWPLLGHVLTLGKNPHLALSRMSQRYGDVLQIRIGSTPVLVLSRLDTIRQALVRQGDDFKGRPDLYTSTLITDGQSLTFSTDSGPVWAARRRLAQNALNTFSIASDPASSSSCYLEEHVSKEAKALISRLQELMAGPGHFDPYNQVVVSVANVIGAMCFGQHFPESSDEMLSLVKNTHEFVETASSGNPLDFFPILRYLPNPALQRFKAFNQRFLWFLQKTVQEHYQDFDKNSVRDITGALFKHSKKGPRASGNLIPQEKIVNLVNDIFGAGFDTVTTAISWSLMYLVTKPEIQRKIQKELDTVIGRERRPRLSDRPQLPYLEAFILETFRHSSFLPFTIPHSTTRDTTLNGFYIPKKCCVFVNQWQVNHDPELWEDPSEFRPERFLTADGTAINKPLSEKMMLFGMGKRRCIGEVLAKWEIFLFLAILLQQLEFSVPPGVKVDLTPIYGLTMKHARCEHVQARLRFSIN

SMILES	CYP1A2 AC50 (half-maximal activity concentration)	AC50
CCOC(=O)C1=NOC(c2ccccc2)(c2ccccc2)C1 [Isoxadifen-ethyl]	Inconclusive inhibitor	–
COCC(=O)N(c1c(C)cccc1C)[C@H](C)C(=O)OC [Metalaxyl-M]	–	47.7 µM
COC(=O)Cc1cccc2ccccc12 [Methyl 1-naphthaleneacetate]	–	18.8 µM
CCS(=O)(=O)c1ccc(OC)c(C(=O)OC)c1 [Methyl 5-(ethylsulfonyl)-o-anisate]	Inactive	–
COC(=O)c1cc(S(N)(=O)=O)ccc1OC [Methyl 5-sulfamoyl-o-anisate]	Inactive	–
CCCCCCC(O)CCCCCCCCCCC(=O)OC (centres unmarked) [Methyl 12-hydroxyoctadecanoate]	Inconclusive inhibitor	–
CCCCCCCCCCCCCOP(=O)(O)O [Monotridecyl phosphate]	–	65.1 µM
O=C1C=CC(=O)N1c1cccc(N2C(=O)C=CC2=O)c1 [N,N'-1,3-Phenylenedimaleimide]	–	12.7 µM
CN(C)CCc1c[nH]c2ccccc12.O=C(O)/C=C/C(=O)O [N,N-Dimethyltryptamine fumarate]	Inactive	–
CCC(CC)Nc1ccc(C)c(C)c1 [N-(1-Ethylpropyl)-3,4-xylidine]	–	11.6 µM
CCNS(=O)(=O)c1ccc(C)cc1 [N-Ethyl-4-methylbenzenesulfonamide]	–	41.1 µM
CC(C)N1C(=O)c2ccccc2C1=O [N-Isopropylphthalimide]	–	35.6 µM
O=C(O)C[C@H](NC(=O)OCc1ccccc1)C(=O)O [N-[(Benzyloxy)carbonyl]-L-aspartic acid]	Inactive	–
C[C@]12CC[C@H]3[C@@H](CCC4=CC(=O)CC[C@@H]43)[C@@H]1CC[C@@H]2OC(=O)CCC1CCCCC1 [Nandrolone cyclohexylpropionate]	–	26.8 µM
CC(C)(COC(=O)c1ccccc1)COC(=O)c1ccccc1 [Neopentyl glycol dibenzoate]	–	47.7 µM
Cc1cc(C)nc(O)n1.O=C(Nc1ccc([N+](=O)[O-])cc1)Nc1ccc([N+](=O)[O-])cc1 [Nicarbazin]	Inactive	–

Target: human CYP2C9 (Homo sapiens, UniProt P11712)
Sequence (P11712 whole entry): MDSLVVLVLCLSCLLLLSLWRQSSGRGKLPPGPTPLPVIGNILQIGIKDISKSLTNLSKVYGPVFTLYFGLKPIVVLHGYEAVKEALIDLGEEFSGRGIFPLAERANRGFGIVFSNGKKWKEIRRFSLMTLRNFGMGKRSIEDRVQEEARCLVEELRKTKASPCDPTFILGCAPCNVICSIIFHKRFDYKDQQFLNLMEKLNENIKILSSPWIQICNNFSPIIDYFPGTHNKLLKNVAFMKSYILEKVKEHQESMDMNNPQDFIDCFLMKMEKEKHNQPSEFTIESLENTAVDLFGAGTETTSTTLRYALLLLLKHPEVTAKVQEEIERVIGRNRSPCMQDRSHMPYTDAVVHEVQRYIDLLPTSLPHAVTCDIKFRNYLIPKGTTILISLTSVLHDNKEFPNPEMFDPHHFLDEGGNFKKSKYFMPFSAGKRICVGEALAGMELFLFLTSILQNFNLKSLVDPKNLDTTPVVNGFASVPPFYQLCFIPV

SMILES	AC50	CYP2C9 AC50 (half-maximal activity concentration)
CCOC(=O)C1=NOC(c2ccccc2)(c2ccccc2)C1 [Isoxadifen-ethyl]	8.36 µM	–
COCC(=O)N(c1c(C)cccc1C)[C@H](C)C(=O)OC [Metalaxyl-M]	–	Inactive
COC(=O)Cc1cccc2ccccc12 [Methyl 1-naphthaleneacetate]	41.9 µM	–
CCS(=O)(=O)c1ccc(OC)c(C(=O)OC)c1 [Methyl 5-(ethylsulfonyl)-o-anisate]	24.6 µM	–
COC(=O)c1cc(S(N)(=O)=O)ccc1OC [Methyl 5-sulfamoyl-o-anisate]	30.9 µM	–
CCCCCCC(O)CCCCCCCCCCC(=O)OC (centres unmarked) [Methyl 12-hydroxyoctadecanoate]	23.8 µM	–
CCCCCCCCCCCCCOP(=O)(O)O [Monotridecyl phosphate]	56.7 µM	–
O=C1C=CC(=O)N1c1cccc(N2C(=O)C=CC2=O)c1 [N,N'-1,3-Phenylenedimaleimide]	5.22 µM	–
CN(C)CCc1c[nH]c2ccccc12.O=C(O)/C=C/C(=O)O [N,N-Dimethyltryptamine fumarate]	–	Inactive
CCC(CC)Nc1ccc(C)c(C)c1 [N-(1-Ethylpropyl)-3,4-xylidine]	33.6 µM	–
CCNS(=O)(=O)c1ccc(C)cc1 [N-Ethyl-4-methylbenzenesulfonamide]	32 µM	–
CC(C)N1C(=O)c2ccccc2C1=O [N-Isopropylphthalimide]	–	Inconclusive inhibitor
O=C(O)C[C@H](NC(=O)OCc1ccccc1)C(=O)O [N-[(Benzyloxy)carbonyl]-L-aspartic acid]	–	Inactive
C[C@]12CC[C@H]3[C@@H](CCC4=CC(=O)CC[C@@H]43)[C@@H]1CC[C@@H]2OC(=O)CCC1CCCCC1 [Nandrolone cyclohexylpropionate]	17.4 µM	–
CC(C)(COC(=O)c1ccccc1)COC(=O)c1ccccc1 [Neopentyl glycol dibenzoate]	6.58 µM	–
Cc1cc(C)nc(O)n1.O=C(Nc1ccc([N+](=O)[O-])cc1)Nc1ccc([N+](=O)[O-])cc1 [Nicarbazin]	–	Inactive

Target: human CYP2C19 (Homo sapiens, UniProt P33261)
Sequence (P33261 whole entry): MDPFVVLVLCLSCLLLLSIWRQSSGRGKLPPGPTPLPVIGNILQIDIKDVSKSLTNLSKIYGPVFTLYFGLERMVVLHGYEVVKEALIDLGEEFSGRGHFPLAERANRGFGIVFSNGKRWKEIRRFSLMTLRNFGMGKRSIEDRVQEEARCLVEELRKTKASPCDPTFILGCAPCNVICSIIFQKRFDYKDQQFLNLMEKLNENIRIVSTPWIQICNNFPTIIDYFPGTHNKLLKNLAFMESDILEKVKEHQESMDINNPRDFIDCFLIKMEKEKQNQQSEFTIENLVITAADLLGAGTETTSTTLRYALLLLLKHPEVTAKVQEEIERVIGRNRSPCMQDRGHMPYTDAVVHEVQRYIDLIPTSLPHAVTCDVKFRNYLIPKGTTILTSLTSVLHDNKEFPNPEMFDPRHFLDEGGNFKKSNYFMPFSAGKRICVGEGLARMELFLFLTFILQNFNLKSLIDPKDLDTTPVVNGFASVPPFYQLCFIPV

SMILES	AC50	CYP2C19 AC50 (half-maximal activity concentration)
CCOC(=O)C1=NOC(c2ccccc2)(c2ccccc2)C1 [Isoxadifen-ethyl]	21.6 µM	–
COCC(=O)N(c1c(C)cccc1C)[C@H](C)C(=O)OC [Metalaxyl-M]	–	Inconclusive inhibitor
COC(=O)Cc1cccc2ccccc12 [Methyl 1-naphthaleneacetate]	63.5 µM	–
CCS(=O)(=O)c1ccc(OC)c(C(=O)OC)c1 [Methyl 5-(ethylsulfonyl)-o-anisate]	–	Inconclusive inhibitor
COC(=O)c1cc(S(N)(=O)=O)ccc1OC [Methyl 5-sulfamoyl-o-anisate]	–	Inactive
CCCCCCC(O)CCCCCCCCCCC(=O)OC (centres unmarked) [Methyl 12-hydroxyoctadecanoate]	–	Inactive
CCCCCCCCCCCCCOP(=O)(O)O [Monotridecyl phosphate]	45.5 µM	–
O=C1C=CC(=O)N1c1cccc(N2C(=O)C=CC2=O)c1 [N,N'-1,3-Phenylenedimaleimide]	7.04 µM	–
CN(C)CCc1c[nH]c2ccccc12.O=C(O)/C=C/C(=O)O [N,N-Dimethyltryptamine fumarate]	–	Inactive
CCC(CC)Nc1ccc(C)c(C)c1 [N-(1-Ethylpropyl)-3,4-xylidine]	10.7 µM	–
CCNS(=O)(=O)c1ccc(C)cc1 [N-Ethyl-4-methylbenzenesulfonamide]	25.9 µM	–
CC(C)N1C(=O)c2ccccc2C1=O [N-Isopropylphthalimide]	–	Inactive
O=C(O)C[C@H](NC(=O)OCc1ccccc1)C(=O)O [N-[(Benzyloxy)carbonyl]-L-aspartic acid]	–	Inactive
C[C@]12CC[C@H]3[C@@H](CCC4=CC(=O)CC[C@@H]43)[C@@H]1CC[C@@H]2OC(=O)CCC1CCCCC1 [Nandrolone cyclohexylpropionate]	–	Inconclusive inhibitor
CC(C)(COC(=O)c1ccccc1)COC(=O)c1ccccc1 [Neopentyl glycol dibenzoate]	20.8 µM	–
Cc1cc(C)nc(O)n1.O=C(Nc1ccc([N+](=O)[O-])cc1)Nc1ccc([N+](=O)[O-])cc1 [Nicarbazin]	–	Inconclusive inhibitor

Target: human CYP2D6 (Homo sapiens, UniProt P10635)
Sequence (P10635 whole entry): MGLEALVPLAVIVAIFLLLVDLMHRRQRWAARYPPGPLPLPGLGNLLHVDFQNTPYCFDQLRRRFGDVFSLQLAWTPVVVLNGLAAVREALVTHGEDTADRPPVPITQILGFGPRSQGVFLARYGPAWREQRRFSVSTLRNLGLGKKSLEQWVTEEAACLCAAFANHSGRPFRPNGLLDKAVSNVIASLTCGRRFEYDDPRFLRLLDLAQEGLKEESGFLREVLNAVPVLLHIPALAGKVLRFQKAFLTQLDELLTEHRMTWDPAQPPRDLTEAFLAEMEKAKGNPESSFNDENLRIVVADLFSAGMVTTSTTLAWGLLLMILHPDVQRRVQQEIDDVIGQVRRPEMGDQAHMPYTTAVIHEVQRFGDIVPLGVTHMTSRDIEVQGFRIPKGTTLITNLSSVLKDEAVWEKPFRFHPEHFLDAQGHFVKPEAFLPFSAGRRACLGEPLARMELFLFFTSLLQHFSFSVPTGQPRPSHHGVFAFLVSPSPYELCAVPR

SMILES	CYP2D6 AC50 (half-maximal activity concentration)	AC50
CCOC(=O)C1=NOC(c2ccccc2)(c2ccccc2)C1 [Isoxadifen-ethyl]	Inconclusive activator	–
COCC(=O)N(c1c(C)cccc1C)[C@H](C)C(=O)OC [Metalaxyl-M]	Inactive	–
COC(=O)Cc1cccc2ccccc12 [Methyl 1-naphthaleneacetate]	Inactive	–
CCS(=O)(=O)c1ccc(OC)c(C(=O)OC)c1 [Methyl 5-(ethylsulfonyl)-o-anisate]	Inactive	–
COC(=O)c1cc(S(N)(=O)=O)ccc1OC [Methyl 5-sulfamoyl-o-anisate]	Inactive	–
CCCCCCC(O)CCCCCCCCCCC(=O)OC (centres unmarked) [Methyl 12-hydroxyoctadecanoate]	Inactive	–
CCCCCCCCCCCCCOP(=O)(O)O [Monotridecyl phosphate]	Inactive	–
O=C1C=CC(=O)N1c1cccc(N2C(=O)C=CC2=O)c1 [N,N'-1,3-Phenylenedimaleimide]	–	36.3 µM
CN(C)CCc1c[nH]c2ccccc12.O=C(O)/C=C/C(=O)O [N,N-Dimethyltryptamine fumarate]	–	34.6 µM
CCC(CC)Nc1ccc(C)c(C)c1 [N-(1-Ethylpropyl)-3,4-xylidine]	Inconclusive inhibitor	–
CCNS(=O)(=O)c1ccc(C)cc1 [N-Ethyl-4-methylbenzenesulfonamide]	Inconclusive inhibitor	–
CC(C)N1C(=O)c2ccccc2C1=O [N-Isopropylphthalimide]	Inactive	–
O=C(O)C[C@H](NC(=O)OCc1ccccc1)C(=O)O [N-[(Benzyloxy)carbonyl]-L-aspartic acid]	Inactive	–
C[C@]12CC[C@H]3[C@@H](CCC4=CC(=O)CC[C@@H]43)[C@@H]1CC[C@@H]2OC(=O)CCC1CCCCC1 [Nandrolone cyclohexylpropionate]	Inactive	–
CC(C)(COC(=O)c1ccccc1)COC(=O)c1ccccc1 [Neopentyl glycol dibenzoate]	Inactive	–
Cc1cc(C)nc(O)n1.O=C(Nc1ccc([N+](=O)[O-])cc1)Nc1ccc([N+](=O)[O-])cc1 [Nicarbazin]	Inactive	–

Target: CYP3A4 (Homo sapiens, UniProt P08684)
Sequence (P08684 whole entry): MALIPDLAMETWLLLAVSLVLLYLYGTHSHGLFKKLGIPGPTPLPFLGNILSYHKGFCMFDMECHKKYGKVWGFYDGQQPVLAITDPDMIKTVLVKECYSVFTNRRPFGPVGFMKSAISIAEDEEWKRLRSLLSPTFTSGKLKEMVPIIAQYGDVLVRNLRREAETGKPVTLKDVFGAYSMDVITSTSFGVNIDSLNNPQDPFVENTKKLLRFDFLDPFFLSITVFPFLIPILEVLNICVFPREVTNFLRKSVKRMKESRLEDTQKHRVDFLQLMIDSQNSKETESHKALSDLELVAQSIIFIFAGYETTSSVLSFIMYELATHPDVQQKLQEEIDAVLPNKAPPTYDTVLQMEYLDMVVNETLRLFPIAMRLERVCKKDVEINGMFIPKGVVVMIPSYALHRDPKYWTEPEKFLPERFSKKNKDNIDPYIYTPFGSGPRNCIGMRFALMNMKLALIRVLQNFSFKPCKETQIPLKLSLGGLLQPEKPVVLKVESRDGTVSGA

SMILES	AC50	CYP3A4 AC50 (half-maximal activity concentration)
CCOC(=O)C1=NOC(c2ccccc2)(c2ccccc2)C1 [Isoxadifen-ethyl]	34.3 µM	–
COCC(=O)N(c1c(C)cccc1C)[C@H](C)C(=O)OC [Metalaxyl-M]	47.7 µM	–
COC(=O)Cc1cccc2ccccc12 [Methyl 1-naphthaleneacetate]	27.5 µM	–
CCS(=O)(=O)c1ccc(OC)c(C(=O)OC)c1 [Methyl 5-(ethylsulfonyl)-o-anisate]	–	Inactive
COC(=O)c1cc(S(N)(=O)=O)ccc1OC [Methyl 5-sulfamoyl-o-anisate]	–	Inactive
CCCCCCC(O)CCCCCCCCCCC(=O)OC (centres unmarked) [Methyl 12-hydroxyoctadecanoate]	27.7 µM	–
CCCCCCCCCCCCCOP(=O)(O)O [Monotridecyl phosphate]	89.4 µM	–
O=C1C=CC(=O)N1c1cccc(N2C(=O)C=CC2=O)c1 [N,N'-1,3-Phenylenedimaleimide]	9.83 µM	–
CN(C)CCc1c[nH]c2ccccc12.O=C(O)/C=C/C(=O)O [N,N-Dimethyltryptamine fumarate]	89.9 µM	–
CCC(CC)Nc1ccc(C)c(C)c1 [N-(1-Ethylpropyl)-3,4-xylidine]	1.45 µM	–
CCNS(=O)(=O)c1ccc(C)cc1 [N-Ethyl-4-methylbenzenesulfonamide]	–	Inactive
CC(C)N1C(=O)c2ccccc2C1=O [N-Isopropylphthalimide]	57.7 µM	–
O=C(O)C[C@H](NC(=O)OCc1ccccc1)C(=O)O [N-[(Benzyloxy)carbonyl]-L-aspartic acid]	35.5 µM	–
C[C@]12CC[C@H]3[C@@H](CCC4=CC(=O)CC[C@@H]43)[C@@H]1CC[C@@H]2OC(=O)CCC1CCCCC1 [Nandrolone cyclohexylpropionate]	4.56 µM	–
CC(C)(COC(=O)c1ccccc1)COC(=O)c1ccccc1 [Neopentyl glycol dibenzoate]	35.7 µM	–
Cc1cc(C)nc(O)n1.O=C(Nc1ccc([N+](=O)[O-])cc1)Nc1ccc([N+](=O)[O-])cc1 [Nicarbazin]	7.42 µM	–
